SMILES strings stand for the structures.

This note sets out measurements from patent publication US9290478B2, “Substituted quinoxalines as FGFR kinase inhibitors” (ASTEX THERAPEUTICS LTD, priority 2010, dated 2016).

Experiment [1] addresses T1, Ba/F3-FGFR1-transfected cells (Homo sapiens, UniProt P11362).
T1 construct: BAF3-FGFR1 (MIN IL3) pIC50; other: minus IL3
The experiment is described as follows: Ba/F3-FGFR1 (minus IL3 or plus IL3) cellular proliferation assay. Type of experiment: cell-based. As to conditions: minus IL3. On the procedure: (§1) Ba/F3-FGFR1 (Minus IL3 or Plus IL3) (Cellular Proliferation Assay)
(§2) In a 384 well plate, 100 nl of compound dilution in DMSO was sprayed before adding 50 μl cell culture medium (phenol red free RPMI-1640, 10% FBS, 2 mM L-Glutamine and 50 μg/ml Gentamycin) containing 20000 cells per well of Ba/F3-FGFR1-transfected cells. Cells were put in an incubator at 37° C. and 5% CO2. After 24 hours, 10 μl of Alamar Blue solution (0.5 mM K3Fe(CN)6, 0.5 mM K4Fe(CN)6, 0.15 mM Resazurin and 100 mM Phosphate Buffer) was added to the wells, incubated for 4 hours at 37° C. and 5% CO2 before RFU's (Relative Fluorescence Units) (ex. 540 nm., em. 590 nm.) were measured in a fluororescence plate reader.
(§3) In this assay, the inhibitory effect of different compound concentrations (range 10 μM to 0.1 nM) was determined and used to calculate an IC50 (M) and pIC50 (−log IC50) value.
(§4) As a counterscreen the same experiment was performed in the presence of 10 ng/ml murine IL3.

In experiment [2] the test system is Ba/F3-FGFR1-transfected cells. The experiment is described as above. Type of experiment: cell-based. Conditions: 24 h; plus 10 ng/ml murine IL3 (counterscreen); read-out: BAF3-FGFR1 (PLUS IL3) pIC50 (converted). On the procedure:
as §1, §2, §3, §4
For orientation: Counterscreens check selectivity or assay interference.

The next experiment deals with FGFR4 (h) (Homo sapiens, UniProt P22455). The experiment is described as follows: FGFR4 (enzymatic assay), TR-FRET. It is filed as biochemical. As to conditions: 5 μM ATP; read-out: FGFR4 pIC50 (converted). As for the experimental part:
(§5) In a final reaction volume of 30 μL, FGFR4 (h) (60 ng/ml) was incubated with 50 mM HEPES pH 7.5, 6 mM MnCl2, 1 mM DTT, 0.1 mM Na3VO4, 0.01% Triton-X-100, 500 nM Btn-Flt3 and 5 μM ATP in the presence of compound (1% DMSO final). After incubation for 60 minutes at room temperature the reaction was stopped with 2.27 nM EU-anti P-Tyr, 7 mM EDTA, 31.25 nM SA-XL-665 and 0.02% BSA which was present for 60 minutes at room temperature. Time-Resolved Fluorescence Resonance Energy Transfer (TR-FRET) signal (ex340 nm. Em 620 nm, em 655 nm) was measured afterwards and results are expressed in RFU (Relative Fluorescence Units). In this assay, the inhibitory effect of different compound concentrations (range 10 μM to 0.1 nM) was determined and used to calculate an IC50 (M) and pIC50 (−log IC50) value.
On the technique in general: In TR-FRET formats the signal depends on donor and acceptor labels being close together.

Experiment [3] relates to Ba/F3-FGFR3-transfected cells. Put plainly: Ba/F3-FGFR3 (minus IL3 or plus IL3) cellular proliferation assay. Type of experiment: cell-based. Conditions: 24 h; plus 10 ng/ml murine IL3 (counterscreen); read-out: BAF3-FGFR3 (PLUS IL3) pIC50 (converted). On the procedure:
(§6) Ba/F3-FGFR3 (Minus IL3 or Plus IL3) (Cellular Proliferation Assay)
as §2, with “nI” for “nl”, “Ba/F3-FGFR3-transfected” for “Ba/F3-FGFR1-transfected”
(§7) In this assay, the inhibitory effect of different compound concentrations (range 10 μM to 0.1 nM) was determined and used to calculate an IC50 (M) and pIC50 (−log IC50) value. As a counterscreen the same experiment was performed in the presence of 10 ng/ml murine IL3.

The target of experiment [4] is T2, Ba/F3-FGFR3-transfected cells (Homo sapiens, UniProt P22607).
T2 construct: BAF3-FGFR3 (MIN IL3) pIC50; other: minus IL3
T2 sequence (P22607 whole entry, change not shown): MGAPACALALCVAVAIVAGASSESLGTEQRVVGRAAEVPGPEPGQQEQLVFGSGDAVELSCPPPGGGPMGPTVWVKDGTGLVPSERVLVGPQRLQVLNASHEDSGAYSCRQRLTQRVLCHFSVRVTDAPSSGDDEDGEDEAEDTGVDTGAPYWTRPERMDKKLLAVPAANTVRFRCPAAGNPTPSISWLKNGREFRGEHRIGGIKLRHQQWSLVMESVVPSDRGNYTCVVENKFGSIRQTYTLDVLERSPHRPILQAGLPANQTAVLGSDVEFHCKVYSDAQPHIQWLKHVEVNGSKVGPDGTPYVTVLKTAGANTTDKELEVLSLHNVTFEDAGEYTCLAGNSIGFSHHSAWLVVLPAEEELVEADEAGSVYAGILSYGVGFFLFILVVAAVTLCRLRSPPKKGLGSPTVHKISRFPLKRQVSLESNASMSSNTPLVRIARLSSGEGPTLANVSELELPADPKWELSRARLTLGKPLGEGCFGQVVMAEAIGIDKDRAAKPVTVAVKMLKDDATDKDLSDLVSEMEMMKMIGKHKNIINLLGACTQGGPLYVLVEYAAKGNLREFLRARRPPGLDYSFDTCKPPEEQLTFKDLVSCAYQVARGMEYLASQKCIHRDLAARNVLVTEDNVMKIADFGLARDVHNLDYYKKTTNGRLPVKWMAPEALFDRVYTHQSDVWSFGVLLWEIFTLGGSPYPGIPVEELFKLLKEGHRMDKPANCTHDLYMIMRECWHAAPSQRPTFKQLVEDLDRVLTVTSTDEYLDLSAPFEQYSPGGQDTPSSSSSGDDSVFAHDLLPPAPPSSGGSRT
Described as above. Type of experiment: cell-based. Conditions: minus IL3. As for the experimental part:
as §6
as §2, with “nI” for “nl”, “Ba/F3-FGFR3-transfected” for “Ba/F3-FGFR1-transfected”
as §7

For a further experiment, the target named is FGFR1 (h) (Homo sapiens, UniProt P11362). The experiment is described as follows: FGFR1 (enzymatic assay), TR-FRET. Type of experiment: biochemical. As to conditions: 5 μM ATP; read-out: FGFR1 pIC50 (converted). On the procedure:
as §5, with “FGFR1” for “FGFR4”, “(25” for “(60”

For experiment [5], the system named is Ba/F3-KDR-transfected cells. Put plainly: Ba/F3-KDR (minus IL3 or plus IL3) cellular proliferation assay. It is filed as cell-based. Conditions: 24 h; plus 10 ng/ml murine IL3 (counterscreen); read-out: BAF3-KDR (PLUS IL3) pIC50 (converted). As for the experimental part: (§8) Ba/F3-KDR (Minus IL3 or Plus IL3) (Cellular Proliferation Assay)
as §2, with “nI” for “nl”, “Ba/F3-KDR-transfected” for “Ba/F3-FGFR1-transfected”
as §7

For experiment [6], the target named is T3, Ba/F3-KDR-transfected cells (Homo sapiens, UniProt P35968).
T3 construct: BAF3-KDR (MIN IL3) pIC50; other: minus IL3
T3 sequence (P35968 whole entry, change not shown): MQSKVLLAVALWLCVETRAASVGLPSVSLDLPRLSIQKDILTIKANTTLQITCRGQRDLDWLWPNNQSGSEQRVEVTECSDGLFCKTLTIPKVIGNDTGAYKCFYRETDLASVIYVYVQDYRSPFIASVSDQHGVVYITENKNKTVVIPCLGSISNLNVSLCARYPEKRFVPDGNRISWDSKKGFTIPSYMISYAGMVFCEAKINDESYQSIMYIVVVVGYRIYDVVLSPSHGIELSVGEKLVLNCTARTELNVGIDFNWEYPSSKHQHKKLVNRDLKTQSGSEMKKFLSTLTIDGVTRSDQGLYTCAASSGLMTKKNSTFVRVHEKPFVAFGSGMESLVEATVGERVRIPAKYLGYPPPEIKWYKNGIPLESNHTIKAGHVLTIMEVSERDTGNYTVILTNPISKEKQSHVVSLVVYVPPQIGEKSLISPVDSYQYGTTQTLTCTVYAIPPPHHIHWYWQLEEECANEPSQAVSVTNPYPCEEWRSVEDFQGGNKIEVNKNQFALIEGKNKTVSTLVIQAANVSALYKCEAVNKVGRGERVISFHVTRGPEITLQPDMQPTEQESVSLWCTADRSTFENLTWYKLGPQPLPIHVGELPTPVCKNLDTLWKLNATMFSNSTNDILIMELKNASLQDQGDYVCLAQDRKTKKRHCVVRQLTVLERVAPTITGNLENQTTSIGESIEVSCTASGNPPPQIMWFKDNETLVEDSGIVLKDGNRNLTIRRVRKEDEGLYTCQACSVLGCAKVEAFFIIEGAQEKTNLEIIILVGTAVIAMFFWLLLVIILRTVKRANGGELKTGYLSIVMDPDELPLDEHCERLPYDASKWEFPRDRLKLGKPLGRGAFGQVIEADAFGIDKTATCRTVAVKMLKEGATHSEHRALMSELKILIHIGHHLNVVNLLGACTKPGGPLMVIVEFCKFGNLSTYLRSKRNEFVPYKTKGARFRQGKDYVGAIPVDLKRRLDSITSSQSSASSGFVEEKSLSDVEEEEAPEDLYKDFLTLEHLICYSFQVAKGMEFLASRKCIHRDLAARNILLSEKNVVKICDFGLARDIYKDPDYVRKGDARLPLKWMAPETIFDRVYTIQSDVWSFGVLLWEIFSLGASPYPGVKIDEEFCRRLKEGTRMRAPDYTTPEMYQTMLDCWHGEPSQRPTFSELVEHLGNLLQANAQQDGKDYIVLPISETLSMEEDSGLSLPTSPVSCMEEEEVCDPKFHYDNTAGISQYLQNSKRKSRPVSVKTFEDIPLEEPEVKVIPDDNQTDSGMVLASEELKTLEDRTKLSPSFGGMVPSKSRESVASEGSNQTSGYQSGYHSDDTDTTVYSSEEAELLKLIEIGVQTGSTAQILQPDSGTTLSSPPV
Described as above. Type of experiment: cell-based. Conditions: minus IL3. As for the experimental part:
as §8
as §2, with “nI” for “nl”, “Ba/F3-KDR-transfected” for “Ba/F3-FGFR1-transfected”
as §7

Chain of FGFR4 (h) (P22455 22-802): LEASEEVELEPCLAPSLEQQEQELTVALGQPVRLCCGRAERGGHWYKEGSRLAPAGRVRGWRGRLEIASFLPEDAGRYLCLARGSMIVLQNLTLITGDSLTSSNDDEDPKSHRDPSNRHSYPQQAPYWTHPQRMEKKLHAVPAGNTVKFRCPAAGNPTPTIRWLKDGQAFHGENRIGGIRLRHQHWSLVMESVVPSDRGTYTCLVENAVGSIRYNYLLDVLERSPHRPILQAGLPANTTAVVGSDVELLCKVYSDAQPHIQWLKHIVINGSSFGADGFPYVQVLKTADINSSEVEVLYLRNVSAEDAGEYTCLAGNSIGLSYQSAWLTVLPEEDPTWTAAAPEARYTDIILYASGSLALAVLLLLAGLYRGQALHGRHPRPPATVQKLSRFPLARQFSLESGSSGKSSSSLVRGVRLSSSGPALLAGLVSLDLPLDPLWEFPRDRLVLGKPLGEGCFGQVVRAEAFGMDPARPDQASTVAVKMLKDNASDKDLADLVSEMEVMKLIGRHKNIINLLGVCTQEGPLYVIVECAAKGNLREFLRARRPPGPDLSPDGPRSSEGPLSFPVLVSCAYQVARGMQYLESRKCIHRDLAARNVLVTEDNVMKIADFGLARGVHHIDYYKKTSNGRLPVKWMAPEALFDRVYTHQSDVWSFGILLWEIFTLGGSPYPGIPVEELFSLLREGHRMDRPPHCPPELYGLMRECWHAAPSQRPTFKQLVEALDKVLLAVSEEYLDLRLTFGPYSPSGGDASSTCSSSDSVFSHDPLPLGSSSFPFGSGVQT
Chain of FGFR1 (h) (P11362 22-822): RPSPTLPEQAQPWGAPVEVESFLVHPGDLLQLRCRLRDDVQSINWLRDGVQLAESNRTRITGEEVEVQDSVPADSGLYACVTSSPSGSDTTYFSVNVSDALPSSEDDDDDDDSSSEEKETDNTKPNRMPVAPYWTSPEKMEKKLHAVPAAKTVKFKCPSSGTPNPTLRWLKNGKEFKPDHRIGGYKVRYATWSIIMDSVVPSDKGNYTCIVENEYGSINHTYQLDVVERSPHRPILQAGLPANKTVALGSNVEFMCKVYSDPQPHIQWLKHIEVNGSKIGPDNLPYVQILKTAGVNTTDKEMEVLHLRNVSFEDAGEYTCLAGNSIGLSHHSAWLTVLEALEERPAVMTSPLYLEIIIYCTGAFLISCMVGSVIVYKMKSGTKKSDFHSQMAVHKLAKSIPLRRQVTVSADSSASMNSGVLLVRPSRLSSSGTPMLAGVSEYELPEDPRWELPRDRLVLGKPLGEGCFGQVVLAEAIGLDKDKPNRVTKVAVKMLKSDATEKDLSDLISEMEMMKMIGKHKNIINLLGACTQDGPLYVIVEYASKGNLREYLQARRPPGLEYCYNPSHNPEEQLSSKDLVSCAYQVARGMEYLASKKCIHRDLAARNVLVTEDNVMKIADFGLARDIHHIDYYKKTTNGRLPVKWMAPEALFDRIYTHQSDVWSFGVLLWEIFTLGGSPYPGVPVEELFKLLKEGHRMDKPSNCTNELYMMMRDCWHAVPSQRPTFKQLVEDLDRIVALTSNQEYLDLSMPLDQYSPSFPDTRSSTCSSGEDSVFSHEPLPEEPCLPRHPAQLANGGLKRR
T1 sequence (P11362 whole entry, change not shown): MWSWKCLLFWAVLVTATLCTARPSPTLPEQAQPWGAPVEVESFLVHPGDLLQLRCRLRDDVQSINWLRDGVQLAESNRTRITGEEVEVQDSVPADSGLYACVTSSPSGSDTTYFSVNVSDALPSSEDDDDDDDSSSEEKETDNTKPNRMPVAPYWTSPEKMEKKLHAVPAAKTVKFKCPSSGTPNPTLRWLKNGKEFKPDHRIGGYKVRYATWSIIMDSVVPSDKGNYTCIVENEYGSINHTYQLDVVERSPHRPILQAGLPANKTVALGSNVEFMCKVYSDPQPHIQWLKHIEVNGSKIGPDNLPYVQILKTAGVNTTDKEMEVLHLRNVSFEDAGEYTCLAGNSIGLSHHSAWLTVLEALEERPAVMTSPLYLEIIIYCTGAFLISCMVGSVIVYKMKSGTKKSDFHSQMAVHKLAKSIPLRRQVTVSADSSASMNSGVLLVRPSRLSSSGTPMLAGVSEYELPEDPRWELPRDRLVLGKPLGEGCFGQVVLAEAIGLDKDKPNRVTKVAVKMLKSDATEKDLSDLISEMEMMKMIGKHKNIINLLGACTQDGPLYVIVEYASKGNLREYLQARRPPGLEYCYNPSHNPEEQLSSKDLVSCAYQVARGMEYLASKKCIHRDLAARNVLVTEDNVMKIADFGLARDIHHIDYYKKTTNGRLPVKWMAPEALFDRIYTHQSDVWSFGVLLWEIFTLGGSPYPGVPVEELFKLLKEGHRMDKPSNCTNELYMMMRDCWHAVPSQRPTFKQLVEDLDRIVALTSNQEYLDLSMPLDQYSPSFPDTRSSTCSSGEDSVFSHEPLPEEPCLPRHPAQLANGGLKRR

In the case of `COc1cc(OC)cc(/C(=C\CNC(C)C)c2ccc3ncc(-c4cnn(C)c4)nc3c2)c1` [Compound 8, {(Z)-3-(3,5-Dimethoxy-phenyl)-3-[3-(1-methyl-1H-pyrazol-4-yl)-quinoxalin-6-yl]-allyl}-isopropyl-amine], the “BAF3-FGFR1 (MIN IL3) pIC50” value in experiment [1] was found to be 6.49. The IC50 in experiment [2] is above 10000 nM; at FGFR4 (h), 126 nM; in experiment [3], above 10000 nM; at FGFR1 (h), 7.76 nM; in experiment [5] it was above 10000 nM. In addition, the “BAF3-FGFR3 (MIN IL3) pIC50” value in experiment [4] is 6.72. Besides, the “BAF3-KDR (MIN IL3) pIC50” value in experiment [6] stood at 5.18.
With `COc1cc(OC)cc(/C(=C/CNC(C)C)c2ccc3ncc(-c4cnn(C)c4)nc3c2)c1` [Compound 9], the “BAF3-FGFR1 (MIN IL3) pIC50” value in experiment [1] was 6.51. The IC50 in experiment [2] was above 10000 nM; at FGFR4 (h), 1480 nM; in experiment [3] it was above 10000 nM; on FGFR1 (h), 60.3 nM; in experiment [5] it was above 10000 nM. For the same compound, in experiment [4], the “BAF3-FGFR3 (MIN IL3) pIC50” value was 6.82. The “BAF3-KDR (MIN IL3) pIC50” value in experiment [6] is below 5.
Regarding `COc1cc(OC)cc(/C(=C\CN(C)C)c2ccc3ncc(-c4cnn(C)c4)nc3c2)c1` [Compound 10, {(Z)-3-(3,5-Dimethoxy-phenyl)-3-[3-(1-methyl-1H-pyrazol-4-yl)-quinoxalin-6-yl]-allyl}-dimethyl-amine], the “BAF3-FGFR1 (MIN IL3) pIC50” value in experiment [1] was 5.81. For the same compound, the IC50 is above 10000 nM in experiment [2]; 107 nM at FGFR4 (h); above 10000 nM in experiment [3]; 17 nM on FGFR1 (h); above 10000 nM in experiment [5]. Further, in experiment [4], the “BAF3-FGFR3 (MIN IL3) pIC50” value was found to be 6.27. For the same compound, the “BAF3-KDR (MIN IL3) pIC50” value in experiment [6] is given as below 5.
For `COc1cc(OC)cc(/C(=C\CNCC(F)(F)F)c2ccc3ncc(-c4cnn(C)c4)nc3c2)c1` [Compound 14, {(Z)-3-(3,5-Dimethoxy-phenyl)-3-[3-(1-methyl-1H-pyrazol-4-yl)-quinoxalin-6-yl]-allyl}-(2,2,2-trifluoro-ethyl)-amine], in experiment [1], the “BAF3-FGFR1 (MIN IL3) pIC50” value turned out to be 6.17. In addition, the IC50 in experiment [2] was above 10000 nM; at FGFR4 (h), 28.8 nM; in experiment [3], above 10000 nM; at FGFR1 (h), 13.8 nM; in experiment [5] it was above 10000 nM. Also, in experiment [4], the “BAF3-FGFR3 (MIN IL3) pIC50” value is on record as 6.39. Further, in experiment [6], the “BAF3-KDR (MIN IL3) pIC50” value is listed as below 5.
As for `COc1cc(OC)cc(C(CC#N)c2ccc3ncc(-c4cnn(C)c4)nc3c2)c1` (stereo not shown) [Compound 18], the “BAF3-FGFR1 (MIN IL3) pIC50” value in experiment [1] was determined as 5.6. The IC50 in experiment [2] is above 10000 nM; on FGFR4 (h) it was 182 nM; in experiment [3], above 10000 nM; at FGFR1 (h), 72.4 nM; in experiment [5] it was above 10000 nM. In addition, the “BAF3-FGFR3 (MIN IL3) pIC50” value in experiment [4] was 5.48. In addition, the “BAF3-KDR (MIN IL3) pIC50” value in experiment [6] is below 5.
`COc1cc(OC)cc(C(CCN)c2ccc3ncc(-c4cnn(C)c4)nc3c2)c1.Cl` (stereo not shown) [Compound 20]: in experiment [1], the “BAF3-FGFR1 (MIN IL3) pIC50” value turned out to be 5.86. Also, the IC50 in experiment [2] is above 10000 nM; at FGFR4 (h), 447 nM; in experiment [3], above 10000 nM; on FGFR1 (h), 77.6 nM; in experiment [5], above 10000 nM. Moreover, the “BAF3-FGFR3 (MIN IL3) pIC50” value in experiment [4] was 6.04. Also, the “BAF3-KDR (MIN IL3) pIC50” value in experiment [6] is below 5.
Turning to `COc1cc(OC)cc(C(CCN(C)C)c2ccc3ncc(-c4cnn(C)c4)nc3c2)c1.Cl` (stereo not shown) [Compound 21], in experiment [1], the “BAF3-FGFR1 (MIN IL3) pIC50” value was 5.95. The IC50 in experiment [2] was above 10000 nM; at FGFR4 (h), 355 nM; in experiment [3] it was above 10000 nM; on FGFR1 (h), 37.2 nM; in experiment [5], above 10000 nM. The “BAF3-FGFR3 (MIN IL3) pIC50” value in experiment [4] stood at 6.32. The “BAF3-KDR (MIN IL3) pIC50” value in experiment [6] is given as below 5.
Take `COc1cc(OC)cc(C(CCO)c2ccc3ncc(-c4cnn(C)c4)nc3c2)c1` (stereo not shown) [Compound 22]: the “BAF3-FGFR1 (MIN IL3) pIC50” value in experiment [1] worked out at 5.66. For the same compound, the IC50 was above 10000 nM in experiment [2]; 513 nM at FGFR4 (h); above 10000 nM in experiment [3]; 107 nM at FGFR1 (h); above 10000 nM in experiment [5]. Besides, in experiment [4], the “BAF3-FGFR3 (MIN IL3) pIC50” value is 5.65. The “BAF3-KDR (MIN IL3) pIC50” value in experiment [6] is on record as below 5.
For `COc1cc(OC)cc(C(CC(=O)NC(C)C)c2ccc3ncc(-c4cnn(C)c4)nc3c2)c1` (stereo not shown) [Compound 23], the “BAF3-FGFR1 (MIN IL3) pIC50” value in experiment [1] is below 5. The IC50 in experiment [2] was above 10000 nM; on FGFR4 (h), above 1000 nM; in experiment [3], above 10000 nM; on FGFR1 (h), above 1000 nM; in experiment [5] it was above 10000 nM. Besides, the “BAF3-FGFR3 (MIN IL3) pIC50” value in experiment [4] is below 5. Further, the “BAF3-KDR (MIN IL3) pIC50” value in experiment [6] is below 5.
On to `COc1cc(OC)cc(C(CC(C)(O)CNC(C)C)c2ccc3ncc(-c4cnn(C)c4)nc3c2)c1.Cl` (stereo not shown) [Compound 25], for which, in experiment [1], the “BAF3-FGFR1 (MIN IL3) pIC50” value is below 5. Moreover, the IC50 in experiment [2] was above 10000 nM; on FGFR4 (h), above 1000 nM; in experiment [3], above 10000 nM; at FGFR1 (h) it was 794 nM; in experiment [5], above 10000 nM. For the same compound, the “BAF3-FGFR3 (MIN IL3) pIC50” value in experiment [4] was 5.13. In addition, the “BAF3-KDR (MIN IL3) pIC50” value in experiment [6] was below 5.
Regarding `Cn1cc(-c2cnc3ccc(C(O)c4ccccc4)cc3n2)cn1` (stereo not shown) [Compound 28], in experiment [1], the “BAF3-FGFR1 (MIN IL3) pIC50” value was below 5. For the same compound, the IC50 in experiment [2] was above 10000 nM; on FGFR4 (h) it was 8510 nM; in experiment [3], above 10000 nM; on FGFR1 (h), around 1510 nM; in experiment [5], above 10000 nM. Also, in experiment [4], the “BAF3-FGFR3 (MIN IL3) pIC50” value is on record as below 5. In addition, the “BAF3-KDR (MIN IL3) pIC50” value in experiment [6] is below 5.
